In article PMC11995724, “Antibiotic target discovery by integrated phenotypic and activity-based profiling of electrophilic fragments” (Cell chemical biology, 2025):

Assay: in vitro
Conditions: human, hek293t cells

Row | Structure (SMILES) | viability at 48 h, 25 µM [%]
1 | CC(Cl)C(=O)N[C@@H]1CCc2c(C#N)cccc21 (stereo partly drawn) [6-P14, 2-chloro-N-[(1R)-4-cyano-2,3-dihydro-1H-inden-1-yl]propanamide] | 114
2 | COCC(C)n1c(C)cc(C=C(C#N)C(=O)NS(C)(=O)=O)c1C (stereo not shown) [8-B04, 2-cyano-N-methanesulfonyl-3-[1-(1-methoxypropan-2-yl)-2,5-dimethyl-1H-pyrrol-3-yl]prop-2-enamide] | 94.8
3 | N#CC(=Cc1ccc(Sc2ccccc2)o1)C(=O)Nc1ccccc1 [8-K05, 2-cyano-N-phenyl-3-[5-(phenylsulfanyl)furan-2-yl]prop-2-enamide] | 70
4 | C=CC(=O)Nc1cccc(-c2ccon2)c1 [3-L04, N-[3-(1,2-oxazol-3-yl)phenyl]prop-2-enamide] | 70.4
5 | N#CC(=Cc1ccc(N)cc1)C(=O)N1CCCC1 [9-E14, 3-(4-aminophenyl)-2-(pyrrolidine-1-carbonyl)prop-2-enenitrile] | 101
6 | CCOc1ccc(NC(=O)C(C)Cl)cc1 (stereo not shown) [6-O09, 2-chloro-N-(4-ethoxyphenyl)propanamide] | 89.5
7 | C=CC(=O)N1CC(C(N)=O)Oc2ccccc21 (stereo not shown) [1-A09, 4-(prop-2-enoyl)-3,4-dihydro-2H-1,4-benzoxazine-2-carboxamide] | 24.7
8 | CC(c1ccc(C(F)(F)F)cc1F)N(C)C(=O)CCl (stereo not shown) [7-P18, 2-chloro-N-{1-[2-fluoro-4-(trifluoromethyl)phenyl]ethyl}-N-methylacetamide] | 0.35
9 | CCc1cccc(CC)c1NC(=O)C(C#N)=Cc1ccc(C#N)cc1 [9-O15, 2-cyano-3-(4-cyanophenyl)-N-(2,6-diethylphenyl)prop-2-enamide] | 36.5
10 | C=CC(=O)Nc1cc(NC(=O)C2CC3CCC2CC3)ccc1F (stereo not shown) [1-C17, N-[4-fluoro-3-(prop-2-enamido)phenyl]bicyclo[2.2.2]octane-2-carboxamide] | 2.94
11 | CCc1ccc(NC(=O)C(C#N)=Cc2ccc(F)c(C#N)c2)cc1 [8-M20, 2-cyano-3-(3-cyano-4-fluorophenyl)-N-(4-ethylphenyl)prop-2-enamide] | 23.7
12 | O=C(CCl)NC1CCCN(Cc2ccccc2)C1=O (stereo not shown) [7-J10, N-(1-benzyl-2-oxopiperidin-3-yl)-2-chloroacetamide] | 55.1
13 | C=CC(=O)NCCC1=CCCCCC1 [1-P21, N-[2-(cyclohept-1-en-1-yl)ethyl]prop-2-enamide] | 93.5
14 | C=CC(=O)NCc1ccc(C(=O)N2CCCOC(C)(C)C2)cc1 [3-N06, N-{[4-(2,2-dimethyl-1,4-oxazepane-4-carbonyl)phenyl]methyl}prop-2-enamide] | 70.7
15 | C=CC(=O)Nc1ccc(F)c(C(=O)CC)c1 [1-I22, N-(4-fluoro-3-propanoylphenyl)prop-2-enamide] | 101
16 | C=CC(=O)Nc1ccc(C(C)CC(N)=O)cc1 (stereo not shown) [1-I16, 3-[4-(prop-2-enamido)phenyl]butanamide] | 72.6
17 | O=C(CCl)c1cc(Cl)sc1Cl [10-D16, 2-chloro-1-(2,5-dichlorothiophen-3-yl)ethan-1-one] | 1.77
18 | CN(C)S(=O)(=O)c1ccccc1CNC(=O)CCl [4-J22, 2-chloro-N-{[2-(dimethylsulfamoyl)phenyl]methyl}acetamide] | 1.7
19 | O=C(CCl)NC1CCN(C(=O)c2ccccc2)C1 (stereo not shown) [7-P06, N-(1-benzoylpyrrolidin-3-yl)-2-chloroacetamide] | 0.866
20 | CC(Cl)C(=O)Nc1ccc([N+](=O)[O-])cc1Cl (stereo not shown) [4-J17, 2-chloro-N-(2-chloro-4-nitrophenyl)propanamide] | 85.5
21 | CC(C)C(C)N(Cc1ccns1)C(=O)CCl (stereo not shown) [5-M12, 2-chloro-N-(3-methylbutan-2-yl)-N-[(1,2-thiazol-5-yl)methyl]acetamide] | 9.67
22 | NS(=O)(=O)c1cccc2cc(NC(=O)CCl)ccc12 [5-K16, 2-chloro-N-(5-sulfamoylnaphthalen-2-yl)acetamide] | 1.61
23 | CC(Cl)C(=O)NCC(C)c1nncn1C (stereo not shown) [7-A07, 2-chloro-N-[2-(4-methyl-4H-1,2,4-triazol-3-yl)propyl]propanamide] | 84.8
24 | CC(Cl)C(=O)NCc1ccc(F)cc1 (stereo not shown) [5-A19, 2-chloro-N-[(4-fluorophenyl)methyl]propanamide] | 76.2
25 | O=C(CCl)NCc1ccn(Cc2ccccc2)n1 [7-H10, N-[(1-benzyl-1H-pyrazol-3-yl)methyl]-2-chloroacetamide] | 0.654
26 | CN(Cc1ccc(-c2ccc(Cl)cc2)o1)C(=O)CCl [5-I13, 2-chloro-N-{[5-(4-chlorophenyl)furan-2-yl]methyl}-N-methylacetamide] | 16.8
27 | O=C(CCl)N1CC(NC(=O)C(F)(F)F)CCC1C(F)(F)F (stereo not shown) [5-O18, N-[1-(2-chloroacetyl)-6-(trifluoromethyl)piperidin-3-yl]-2,2,2-trifluoroacetamide] | 6.17
28 | O=C(CCl)N1CCCCC1c1nc(-c2ccccn2)cs1 (stereo not shown) [5-G18, 2-chloro-1-{2-[4-(pyridin-2-yl)-1,3-thiazol-2-yl]piperidin-1-yl}ethan-1-one] | 0.612

Row | Structure (SMILES) | viability at 48 h, 25 µM [%]
29 | C=CC(=O)NCc1nc2cc(F)ccc2o1 [3-N20, N-[(5-fluoro-1,3-benzoxazol-2-yl)methyl]prop-2-enamide] | 84.7
30 | N#CC(=Cc1cccs1)C(=O)Nc1cccc2ncccc12 [8-D20, 2-cyano-N-(quinolin-5-yl)-3-(thiophen-2-yl)prop-2-enamide] | 84.3
31 | CC(Cl)C(=O)Nc1ccc(-c2c[nH]cn2)cc1 (stereo not shown) [5-F08, 2-chloro-N-[4-(1H-imidazol-4-yl)phenyl]propanamide] | 98.2
32 | Cn1cc(C=C(C#N)C(=O)NCc2ccco2)cn1 [8-L06, 2-cyano-N-[(furan-2-yl)methyl]-3-(1-methyl-1H-pyrazol-4-yl)prop-2-enamide] | 89.4
33 | C=CC(=O)NC(C)Cc1cccn1C (stereo not shown) [3-M22, N-[1-(1-methyl-1H-pyrrol-2-yl)propan-2-yl]prop-2-enamide] | 70.2
34 | CC(=O)Nc1ccc(C=C(C#N)C(=O)NC2CCCCC2)cc1 [8-N16, 2-cyano-N-cyclohexyl-3-(4-acetamidophenyl)prop-2-enamide] | 95.6
35 | N#CC(=Cc1cc(F)ccc1F)C(=O)Nc1ccc(F)cc1 [8-E10, 2-cyano-3-(2,5-difluorophenyl)-N-(4-fluorophenyl)prop-2-enamide] | 87.5
36 | C=CC(=O)NCc1ccccc1S(=O)(=O)NC [1-N03, N-{[2-(methylsulfamoyl)phenyl]methyl}prop-2-enamide] | 92.3
37 | C=CC(=O)N1CC(OCc2ccccc2F)C1 [3-I15, 1-{3-[(2-fluorophenyl)methoxy]azetidin-1-yl}prop-2-en-1-one] | 40.4
38 | CC1(C)Cc2cc(C=C(C#N)C(=O)Nc3ccccc3F)ccc2O1 [8-G20, 2-cyano-3-(2,2-dimethyl-2,3-dihydro-1-benzofuran-5-yl)-N-(2-fluorophenyl)prop-2-enamide] | 68
39 | NC(=O)c1coc(C(=O)CCl)c1 [10-C05, 5-(2-chloroacetyl)furan-3-carboxamide] | 60.9
40 | O=C(CCl)c1ccc2c(c1)CCN(C(=O)C(F)(F)F)C2 [10-E09, 1-[6-(2-chloroacetyl)-1,2,3,4-tetrahydroisoquinolin-2-yl]-2,2,2-trifluoroethan-1-one] | 4.03
41 | Cc1noc(C)c1CN(C)C(=O)CCl [5-G06, 2-chloro-N-[(3,5-dimethyl-1,2-oxazol-4-yl)methyl]-N-methylacetamide] | 1.87
42 | N#CC(=Cc1ccc(Cl)cc1Cl)C(N)=O [8-H17, 2-cyano-3-(2,4-dichlorophenyl)prop-2-enamide] | 93.6
43 | COc1ccc(C=C(C#N)C(=O)Nc2nccs2)cc1O [8-G19, 2-cyano-3-(3-hydroxy-4-methoxyphenyl)-N-(1,3-thiazol-2-yl)prop-2-enamide] | 85
44 | Cc1oc(C(N)=O)cc1C(=O)CCl [10-M05, 4-(2-chloroacetyl)-5-methylfuran-2-carboxamide] | 27.7
45 | C=CC(=O)NCCC(=O)NC1CCCCC12OCCO2 (stereo not shown) [2-O08, N-[2-({1,4-dioxaspiro[4.5]decan-6-yl}carbamoyl)ethyl]prop-2-enamide] | 106
46 | CCCNC(=O)C(C#N)=Cc1ccns1 [9-G03, 2-cyano-N-propyl-3-(1,2-thiazol-5-yl)prop-2-enamide] | 128
47 | C=CC(=O)NC(C)C1(S(C)(=O)=O)CC1 (stereo not shown) [2-P05, N-[1-(1-methanesulfonylcyclopropyl)ethyl]prop-2-enamide] | 84.3
48 | C=CC(=O)N1CCOC(c2cccc(OC)c2)C1 (stereo not shown) [3-E09, 1-[2-(3-methoxyphenyl)morpholin-4-yl]prop-2-en-1-one] | 34.5
49 | C=CC(=O)Nc1ccccc1-n1nccn1 [3-H10, N-[2-(2H-1,2,3-triazol-2-yl)phenyl]prop-2-enamide] | 73.2
50 | N#Cc1ccc(N2C(=O)C=CC2=O)cc1 [10-B09, 4-(2,5-dioxo-2,5-dihydro-1H-pyrrol-1-yl)benzonitrile] | 82.1
51 | Cc1ccc(C)c(NC(=O)C(C#N)=Cc2ccc3c(c2)OCCO3)c1 [8-L11, 2-cyano-3-(2,3-dihydro-1,4-benzodioxin-6-yl)-N-(2,5-dimethylphenyl)prop-2-enamide] | 96.2
52 | N#CC(=Cc1c[nH]nc1-c1ccccc1F)C(=O)Nc1ccccc1F [8-H06, 2-cyano-N-(2-fluorophenyl)-3-[3-(2-fluorophenyl)-1H-pyrazol-4-yl]prop-2-enamide] | 90.8
53 | N#CC1=C(N2CCOCC2)SC(c2ccc([N+](=O)[O-])cc2)NC1=O (stereo not shown) [9-D08, 6-(morpholin-4-yl)-2-(4-nitrophenyl)-4-oxo-3,4-dihydro-2H-1,3-thiazine-5-carbonitrile] | 112
54 | CC(NC(=O)CCl)c1nnc(-c2cccc(F)c2)s1 (stereo not shown) [5-F13, 2-chloro-N-{1-[5-(3-fluorophenyl)-1,3,4-thiadiazol-2-yl]ethyl}acetamide] | 0.963
55 | C=CC(=O)Nc1ccc2cc(N(C)C)ccc2c1 [1-E19, N-[6-(dimethylamino)naphthalen-2-yl]prop-2-enamide] | 46.5
